The values that follow come from patent US9023789B2, “Amylin analogs and pharmaceutical compositions thereof” (Novo Nordisk A/S, priority 2012, dated 2015).

SMILES strings stand for the structures. Where two headings read alike, the source gives them in different places. Numbered stars: 1 amine (or outer) side, 2 acyl side, 3 side chain; on linkers, the order of the positions; unused ones are H or OH. Bridge positions count the residues as written; N and C are the ends. Side chains are listed from the residue outwards. Peptide text beside a SMILES is read from it. * marks the point of attachment. C20 diacid = O=C(O)CCCCCCCCCCCCCCCCCCC(=O)*; γGlu = O=C(O)[C@H](CCC(=O)[*:2])N[*:1]; AEEA = NCCOCCOCC(=O)O

Data set [1] has as its target T1, human amylin 3(a) receptor (human calcitonin receptor + RAMP-3) in BHK570 cells (Homo sapiens, UniProt O60896+P30988).
T1 construct: expressed in transfected cells
The data set can be described thus: ASSAY (II)a functional assay, human amylin receptor (CRE luciferase). The settings on record: for EC50: human amylin receptor functional potency, assay (II), read-out: hAmylin-R funct. EC50. The format is cell-based. In a few lines: (§1)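 Functional agonism was measured by CRE-luciferase reporter luminescence in BHK cells bearing calcitonin receptor, or calcitonin receptor plus RAMP-3 as the amylin 3(a) receptor. Stimulation lasted 3 hours at 37° C.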

Data set [2] concerns the target T2, human amylin receptor (membranes from Amylin 3(a)/CRE-luc cells) (Homo sapiens, UniProt O60896+P30988).
T2 construct: expressed in transfected cells
T2 sequence (P30988 25-474): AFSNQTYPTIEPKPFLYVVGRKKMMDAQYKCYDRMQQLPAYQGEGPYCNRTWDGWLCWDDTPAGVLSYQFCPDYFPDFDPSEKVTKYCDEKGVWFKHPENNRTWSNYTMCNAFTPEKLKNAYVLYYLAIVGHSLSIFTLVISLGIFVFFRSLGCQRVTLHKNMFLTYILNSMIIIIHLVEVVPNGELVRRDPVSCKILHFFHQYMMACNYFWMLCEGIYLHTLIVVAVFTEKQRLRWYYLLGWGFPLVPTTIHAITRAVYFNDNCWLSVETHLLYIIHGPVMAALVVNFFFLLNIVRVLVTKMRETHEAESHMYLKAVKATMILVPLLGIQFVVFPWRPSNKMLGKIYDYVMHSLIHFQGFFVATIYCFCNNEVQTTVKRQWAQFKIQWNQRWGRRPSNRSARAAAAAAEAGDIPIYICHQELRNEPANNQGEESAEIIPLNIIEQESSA
T2 sequence (O60896 24-148 partner): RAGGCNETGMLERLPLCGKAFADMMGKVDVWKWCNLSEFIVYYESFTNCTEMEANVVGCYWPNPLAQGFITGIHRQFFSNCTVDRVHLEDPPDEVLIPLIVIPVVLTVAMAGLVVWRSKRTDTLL
The experiment in a line: ASSAY (V) binding to the human amylin receptor (SPA, 125I-rat amylin).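 As to all read-outs here: competition binding of cell membranes (35 ng/µL) mixed with SPA beads in 384-well plates at 40 µL total volume, read by scintillation counting.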 Conditions: for IC50: Table 4, read-out: hAmylin-R bind IC50.

Data set [3] has as its target T3, human calcitonin (a) receptor in BHK570 cells (Homo sapiens, UniProt P30988).
T3 construct: expressed in transfected cells
T3 sequence (P30988 25-474): T2 sequence (P30988 25-474)
The data set can be described thus: ASSAY (II)a functional assay, human calcitonin receptor (CRE luciferase). The data set is classed as cell-based. Conditions: read-out: hCTR funct. EC50. In a few lines:
as §1

Data set [4] has as its target T4, rat calcitonin receptor (Rattus norvegicus, UniProt P32214).
T4 construct: expressed in transfected cells; host or cells: BHK tk'ts 13 (transient, FuGENE 6), membranes
T4 sequence (P32214 25-479 isoform P32214-2 limits assumed): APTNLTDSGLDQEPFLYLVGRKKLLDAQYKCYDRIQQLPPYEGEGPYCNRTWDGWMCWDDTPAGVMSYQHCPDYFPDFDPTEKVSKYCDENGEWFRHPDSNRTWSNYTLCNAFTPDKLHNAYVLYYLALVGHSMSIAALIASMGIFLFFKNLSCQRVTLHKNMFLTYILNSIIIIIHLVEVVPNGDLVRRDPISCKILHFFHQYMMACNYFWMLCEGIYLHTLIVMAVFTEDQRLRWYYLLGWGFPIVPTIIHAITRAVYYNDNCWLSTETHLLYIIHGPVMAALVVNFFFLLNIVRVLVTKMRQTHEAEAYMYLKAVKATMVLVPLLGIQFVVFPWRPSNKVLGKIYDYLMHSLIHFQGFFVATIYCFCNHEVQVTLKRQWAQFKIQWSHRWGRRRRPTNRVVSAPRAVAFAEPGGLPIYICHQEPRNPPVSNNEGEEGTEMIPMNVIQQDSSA
The data set can be described thus: ASSAY (VIII) binding to the rat calcitonin receptor. The settings on record: Table 7, read-out: rCTR bind IC50. In a few lines: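 Receptor source: membranes from transiently transfected BHK tk′ts 13 cells expressing rat calcitonin receptor, collected roughly 48 hours after transfection.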

For data set [5], the target named is T5, human calcitonin receptor (Homo sapiens, UniProt P30988).
T5 construct: expressed in transfected cells
T5 sequence (P30988 25-474): T2 sequence (P30988 25-474)
The data set can be described thus: ASSAY (VII) binding to the human calcitonin receptor (SPA, 125I-Calcitonin).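 Also: cell membranes (35 ng/µL) combined with SPA beads in 40 µL of pH 7.4 Hepes buffer, 384-well format, signal counted on a TopCounter instrument.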 The settings on record: read-out: hCTR bind IC50.

Data set [6] in a line: ASSAY (IV) determination of solubility. The format is physicochemical. In a few lines: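 UPLC read-out of polypeptide concentration after centrifugation. Samples: aqueous polypeptide stock ([…]) + 100 mM buffer 1:1, glycylglycine pH 3.0–5.0 or bistrispropane pH 6.0–8.0; 18 h, RT.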
The mark [7] stands for this setting: hCTR funct. EC50 divided by hAmylin-R funct. EC50.
The mark [8] stands for this setting: hCTR funct. EC50 over hAmylin-R funct. EC50.
[9] abbreviates: human functional selectivity: hCTR funct. EC50 / hAmylin-R funct. EC50.
The mark [10] stands for this setting: Table 5, selectivity, hCTR bind IC50 / hAmylin-R bind IC50.
Setting [11] is: Table 5a, selectivity, hCTR bind IC50 / hAmylin-R bind IC50.
The mark [12] stands for this setting: Table 5b, selectivity, hCTR bind IC50 / hAmylin-R bind IC50.
The mark [13] stands for this setting: Table 5c, selectivity, hCTR bind IC50 / hAmylin-R bind IC50.
Setting [14] is: Table 7, human binding selectivity, included for comparison.
[15] abbreviates: Table 7a (preferred compounds), human binding selectivity, included for comparison.
Setting [16] is: ratio of human calcitonin receptor binding IC50 to human amylin receptor binding IC50.
[17] abbreviates: bistrispropane buffer, pH 6.5, read-out: Solubility pH 6.5 Concentration.
The mark [18] stands for this setting: bistrispropane buffer, pH 7.5, read-out: Solubility pH 7.5 Concentration.
Setting [19] is: bistrispropane buffer, pH 6.0, read-out: Solubility pH 6.0 Concentration.
The mark [20] stands for this setting: bistrispropane buffer, pH 7.0, read-out: Solubility pH 7.0 Concentration.
[21] abbreviates: bistrispropane buffer, pH 8.0, read-out: Solubility pH 8.0 Concentration.
Setting [22] is: glycylglycine buffer, pH 3.0, read-out: Solubility pH 3.0 Concentration.
The mark [23] stands for this setting: glycylglycine buffer, pH 4.0, read-out: Solubility pH 4.0 Concentration.
The mark [24] stands for this setting: glycylglycine buffer, pH 5.0, read-out: Solubility pH 5.0 Concentration.

A word on the EC50: it is the concentration giving half of the maximal effect. A word on the IC50: it is the concentration at which inhibition is half-maximal. For the compound `CC[C@H](C)[C@H](NC(=O)[C@H](C)NC(=O)CNC(=O)[C@H](Cc1ccccc1)NC(=O)[C@H](CC(N)=O)NC(=O)[C@@H]1CCCN1C(=O)[C@H](CO)NC(=O)[C@H](CO)NC(=O)[C@H](Cc1c[nH]cn1)NC(=O)[C@H](CCCNC(=N)N)NC(=O)[C@H](CC(C)C)NC(=O)[C@H](Cc1ccccc1)NC(=O)[C@H](CC(N)=O)NC(=O)[C@H](C)NC(=O)[C@H](CC(C)C)NC(=O)[C@H](CCCNC(=N)N)NC(=O)[C@H](CCC(N)=O)NC(=O)[C@@H](NC(=O)[C@H](C)NC(=O)[C@@H]1CSSC[C@H](NC(=O)[C@@H](N)CCCCNC(=O)CC[C@H](NC(=O)CCCCCCCCCCCCCCCCCCC(=O)O)C(=O)O)C(=O)N[C@@H](CC(N)=O)C(=O)N[C@@H]([C@@H](C)O)C(=O)N[C@@H](C)C(=O)N[C@@H]([C@@H](C)O)C(=O)N1)[C@@H](C)O)C(=O)N1CCC[C@H]1C(=O)N[C@@H](CO)C(=O)N[C@@H](CO)C(=O)N[C@H](C(=O)N[C@@H](CC(N)=O)C(=O)N[C@H](C(=O)NCC(=O)N[C@@H](CO)C(=O)N[C@@H](CC(N)=O)C(=O)N[C@H](C(=O)N[C@@H](Cc1ccc(O)cc1)C(N)=O)[C@@H](C)O)C(C)C)[C@@H](C)O` [Example 48], the “Ratio hCT/hAmylin funct.” value in data set [1] (setting [7]), in data set [1] (setting [8]) and in data set [1] (setting [9]) was 17.0 throughout. The 50% effective concentration (EC50) amounted to 0.116 nM in data set [1] and 1.97 nM in data set [3]. Also, the IC50 was found to be 0.443 nM in data set [2], 112 nM in data set [4] and 30.9 nM in data set [5]. Moreover, the “Ratio hCT/hAmylin binding” value in data set [2] (setting [10]), in data set [2] (setting [11]), in data set [2] (setting [12]), in data set [2] (setting [13]), in data set [2] (setting [14]) and in data set [2] (setting [15]) was 69.7 throughout. Also, in data set [2] (setting [16]), the “Ratio hCT/hAmylin binding” value turned out to be 69.7. Besides, the solubility at 18 h in data set [6] (setting [17]), in data set [6] (setting [18]), in data set [6] (setting [19]), in data set [6] (setting [20]), in data set [6] (setting [21]) and in data set [6] (setting [22]) was at least 200 µM throughout. Also, the solubility at 18 h in data set [6] (setting [23]) and in data set [6] (setting [24]) was at least 200 µM each time.
Take `CC[C@H](C)[C@H](NC(=O)[C@H](C)NC(=O)CNC(=O)[C@H](Cc1ccccc1)NC(=O)[C@H](CC(N)=O)NC(=O)[C@@H]1CCCN1C(=O)[C@H](CO)NC(=O)[C@H](CO)NC(=O)[C@H](Cc1c[nH]cn1)NC(=O)[C@H](CCCNC(=N)N)NC(=O)[C@H](CC(C)C)NC(=O)[C@H](Cc1ccccc1)NC(=O)[C@H](CC(N)=O)NC(=O)[C@H](C)NC(=O)[C@H](CC(C)C)NC(=O)[C@H](CCCNC(=N)N)NC(=O)[C@H](CCC(N)=O)NC(=O)[C@@H](NC(=O)[C@H](C)NC(=O)[C@@H]1CSSC[C@H](NC(=O)[C@@H](N)CCCCNC(=O)COCCOCCNC(=O)CC[C@H](NC(=O)CCCCCCCCCCCCCCCCCCC(=O)O)C(=O)O)C(=O)N[C@@H](CC(N)=O)C(=O)N[C@@H]([C@@H](C)O)C(=O)N[C@@H](C)C(=O)N[C@@H]([C@@H](C)O)C(=O)N1)[C@@H](C)O)C(=O)N1CCC[C@H]1C(=O)N[C@@H](CO)C(=O)N[C@@H](CO)C(=O)N[C@H](C(=O)N[C@@H](CC(N)=O)C(=O)N[C@H](C(=O)NCC(=O)N[C@@H](CCCNC(=N)N)C(=O)N[C@@H](CC(N)=O)C(=O)N[C@H](C(=O)N[C@@H](Cc1ccc(O)cc1)C(N)=O)[C@@H](C)O)C(C)C)[C@@H](C)O` [Example 78] (H-K([AEEA-γGlu-C20 diacid])CNTATCATQRLANFLRHSSPNFGAIPSSTNVGRNTY-NH2; disulfide 2-7 (inferred)): the “Ratio hCT/hAmylin funct.” value in data set [1] (setting [7]), in data set [1] (setting [8]) and in data set [1] (setting [9]) was 25.8 in each case. Besides, the 50% effective concentration (EC50) turned out to be 0.316 nM in data set [1] and 8.17 nM in data set [3]. Moreover, the concentration for half-maximal inhibition (IC50) in data set [2] was found to be 0.602 nM; in data set [4], 90.6 nM; in data set [5] it was 36.6 nM. The “Ratio hCT/hAmylin binding” value in data set [2] (setting [10]), in data set [2] (setting [11]), in data set [2] (setting [12]), in data set [2] (setting [13]), in data set [2] (setting [14]) and in data set [2] (setting [15]) was 60.7 throughout. Also, the “Ratio hCT/hAmylin binding” value in data set [2] (setting [16]) worked out at 60.7. The solubility at 18 h in data set [6] (setting [17]), in data set [6] (setting [18]), in data set [6] (setting [19]), in data set [6] (setting [20]), in data set [6] (setting [21]) and in data set [6] (setting [22]) was at least 200 µM in each case. Moreover, the solubility at 18 h in data set [6] (setting [23]) and in data set [6] (setting [24]) was at least 200 µM each time.
